Series [1] relates to RPMI 8226 cells. Nature of the series: MTT assay of cell viability in RPMI 8226 cells. It counts as cell-based, Human. Particulars: for IC50: Homo sapiens, RPMI-8226; for fold more active than the reference compound Hib-ester: after 24 h of treatment; for profile in MTT and Trypan blue tests compared with racemate: enantiomers of 13, 10, 100 and 500 µM. On the procedure: RPMI 8226 cells were treated with different concentrations of all compounds (10, 100 and 500 µM) at 24 h. The concentrations have been chosen based on the results previously obtained with Hib-ester. MTT assay was performed to assess cell viability and calculate the IC50 (Table 1). For compounds not showing a significant reduction of cell viability at the concentration of 500 µM, the IC50 was not calculated, and they have been considered not effective. Untreated cells were used as control (CTRL).
Human multiple myeloma RPMI 8226 cells were cultured in RPMI 1640 medium supplemented with 10% fetal bovine serum, 1% L-glutamine and 1% penicillin and streptomycin (Euroclone, Italy). Human glioblastoma U87-MG cells were cultured in DMEM low glucose supplemented with 10% fetal bovine serum, 1% L-glutamine and 1% penicillin and streptomycin (Euroclone, Italy). Cells were incubated in a humidified incubator at 37 °C and 5% CO2. A stock solution of all compounds in DMSO (50 mM) was prepared and then directly diluted in culture medium.
Cells were seeded in 96-well plates at a density of 1 × 10^4 cells/well and were treated after 24 h with RA, AM or SU molecules. After 24 h, a 3-(4,5-dimethylthiazol-2-yl)-2,5-diphenyltetrazolium bromide (MTT, Sigma Aldrich, United States) solution was added to each well to reach a final concentration of 0.5 mg/mL. After 4 h of incubation (4 h for RPMI 8226 cells), formazan salt was solubilized in ethanol and absorbance was measured at 570 nm in a microplate reader (BMG-Labtech, Ortenberg, Germany).
(Tetrazolium assays rely on reduction of a dye to a coloured formazan, in cell work by metabolically active cells.)

The test system of series [2] is RPMI 8226 cells. Nature of the series: MTT assay of cell viability in RPMI 8226 cells. It counts as cell-based, Human. To be noted: for change of MTT efficacy over time: 24, 48 and 72 h; for IC50: Homo sapiens.
Series [3] concerns the target T1, proteasome (Homo sapiens, UniProt P28074).
T1 construct: endogenous in cells; host or cells: RPMI 8226 (human multiple myeloma)
T1 sequence (P28074 60-263): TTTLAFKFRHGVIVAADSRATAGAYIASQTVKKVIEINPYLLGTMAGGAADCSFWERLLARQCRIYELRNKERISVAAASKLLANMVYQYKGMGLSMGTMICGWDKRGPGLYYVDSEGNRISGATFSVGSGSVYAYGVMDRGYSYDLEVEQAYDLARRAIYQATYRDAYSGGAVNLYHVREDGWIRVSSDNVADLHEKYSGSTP
In words: Proteasome activity assay on lysates of treated RPMI 8226 cells (Suc-LLVY-AMC substrate). It counts as cell-based. To be noted: for proteasome inhibition activity: after 24 h, 10, 100 and 500 µM; for IC50: RPMI 8226 cells treated 24 h, read-out: IC50 (proteasome inhibition). The method, then:
RPMI 8226 cells treated with Bortezomib (BTZ) 1, 5 and 10 nM were used as positive control for all experiments (Figure S2, Supplementary Information).
Cells not used in the Trypan blue assay were lysed to assess proteasome activity. Briefly, cells were resuspended in a lysis buffer (50 mM Hepes Ph 7.5, 150 mM NaCl, 10% glycerol, 1% Triton X-100, 1.5 mM MgCl2, 5 mM EGTA) and were mechanically lysed with a vortex. Obtained protein lysates were centrifuged at 13,500 RPM for 15 min and were quantified using the Bradford method. Some 40 µg of proteins were then loaded in black-96-well plate to perform the proteasome activity assay. In each well, 7.6 mg/mL proteasome substrate (N-Succinyl-Leu-Leu-Val-Tyr-7-Amido-4-Methylcoumarin, Sigma Aldrich, United States) and proteasome buffer (250 mM Hepes pH 7.5, 5 mM EDTA pH 8.0, 0.5% NP-40, 0.01% SDS) were added to the proteins. Fluorescence was measured after 2 h of incubation in a microplate reader (excitation 380 nm, emission 460 nm; BMG-Labtech, Ortenberg, Germany).
RPMI 8226 cells were treated with different concentrations (10, 100 and 500 µM) of each compound and, after 24 hours, proteasome activity assay was performed.
Supplementary Figure S1. Proteasome activity of RPMI 8226 cells treated with (2R,3R/2S,3S)-13, 14, 16 and 20. Proteasome activity was evaluated in cells treated for 24 hours with different concentrations (10, 100 and 500 µM) of compounds. The graphs represent the mean proteasome activity ± SD, compared to untreated controls, arbitrarily set to 100%. ** p < 0.01 vs CTRL.
RPMI 8226 cells treated with BTZ 1, 5 and 10 nM were used as positive control for all experiments. […]
The graphs represent the mean cell number ± SD of viable and dead cells. ** p < 0.01 vs CTRL; C) Proteasome activity of RPMI 8226 cells treated with BTZ. Proteasome activity was evaluated in cells treated for 24 hours with different concentrations (1, 5 and 10 nM) of BTZ. The graphs represent the mean proteasome activity ± SD, compared to untreated controls, arbitrarily set to 100%. ** p < […]

In series [4] the test system is RPMI 8226 cells. Nature of the series: Trypan blue vital count assay (viable and dead cells). Format: cell-based, Human. To be noted: 100 µM. The method, then: RPMI 8226 cells treated with Bortezomib (BTZ) 1, 5 and 10 nM were used as positive control for all experiments (Figure S2, Supplementary Information). Cells were seeded in 6-well plates at a density of 2.5 × 10^5 cells/well and were treated after 24 h with different concentrations of RA molecules. After 24 h of treatment, cells were collected and stained with Trypan blue vital dye (Sigma Aldrich, Burlington, VT, USA). Viable and dead cells were then counted in a hemocytometer under a light microscope.

The subject of series [5] is human multiple myeloma RPMI 8226 cells. Also noted: method as in PMID 31323932. To be noted: at 24 h; cited from earlier work.
Details of series [6]: method as in PMID 31323932. To be noted: cited from earlier work.
Details of series [7]: method as in PMID 31323932. To be noted: cited from earlier work. This is another data set of the same source.
The test system of series [8] is proteasome. More on the design: method as in PMID 31323932. To be noted: cited from earlier work.
Where [9] appears, read: 24 h, MTT assay, concentrations 10, 100 and 500 µM, n.e.* = compounds not effective at 500 µM, read-out: IC50 μM RPMI8226.
Where [10] appears, read: 24 h of treatment, read-out: IC50 (MTT).

The text below walks through data of PMC9658545, “From Nature to Synthetic Compounds: Novel 1(N),2,3 Trisubstituted-5-oxopyrrolidines Targeting Multiple Myeloma Cells” (International Journal of Molecular Sciences, 2022).

SMILES strings stand for the structures. ≈ marks a conversion by molar mass, not a printed value. Like-named read-outs stand apart in the source and are kept apart here.

Turning to `CC(C)CN1C(=O)CC(C(=O)O)C1c1ccccc1` [(2R,3R/2S,3S)-9, 1-Isobutyl-5-oxo-2-phenylpyrrolidine 3-Carboxylic Acid], the melting point (commonly the temperature, or range, at which the solid turns liquid) is 120.6 to 122.7 °C. In the series on RPMI 8226 cells [1] (24 h, MTT assay, concentrations 10, 100 and 500 µM, n.e.* = compounds not effective at 500 µM), the “IC50 μM RPMI8226” value is “n.e.*”.
Regarding `O=C(O)C1CC(=O)N(Cc2ccccc2)C1c1ccccc1` (racemic) [(2R,3R/2S,3S)-13, 1-Benzyl-5-oxo-2-phenylpyrrolidine 3-Carboxylic Acid], the “change of MTT efficacy over time” value in the series on RPMI 8226 cells [2] is listed as “time-dependent effect”. Besides, the IC50 (usually the point on the concentration scale where inhibition reaches its midpoint) with RPMI 8226 cells [2] (RPMI-8226, 48 h) is 85 µM; with RPMI 8226 cells [2] (RPMI-8226, 72 h), 15 µM; with RPMI 8226 cells [1] (setting [9]), 169 ± 21 µM; with RPMI 8226 cells [1] (setting [10]), below 350 µM. The “fold more active than Hib-ester in reducing RPMI 8226 cells growth” value in the series with RPMI 8226 cells [2] (after 24 and 72 h of treatment) is “twelve-fold more active”. Moreover, the proteasome inhibition activity entry on proteasome [3] was “most effective”. Also, the “fold more active than the reference compound Hib-ester” value with RPMI 8226 cells [1] was “at least 6 fold”. Further, in the series on RPMI 8226 cells [4], the “cell death (Trypan blue vital count)” value is on record as “significant increase in cell death”.
With `COC(=O)C1OC(=O)CC1(O)C(=O)OC` (stereo not drawn) [Hib-ester], the “IC50 (antiproliferative properties)” value in series [5] is 0.45 mg/mL (≈ 2060 µM). Also, the neurotoxic effects entry in [6] was “without neurotoxic effects”. The “effect on migration and cell invasion” value in series [7] was “reduce migration and cell invasion”. The proteasome inhibition entry with proteasome [8] is given as “inhibit proteasome”.
As for `O=C(O)C1CC(=O)N(Cc2ccccc2)C1c1ccccc1` (single isomer, unassigned; (-)) [(−)-(2R,3R)-13], the IC50 at proteasome [3] came out at 90 ± 8 µM. The “activity relative to the opposite enantiomer in the biological assays” value on proteasome [3] (enantiomers of 13) is “twofold more active”. The “profile in MTT and Trypan blue tests compared with racemate” value with RPMI 8226 cells [1] is “profile comparable with racemate”.
For the compound `O=C(O)C1CC(=O)N(Cc2ccccc2)C1c1ccccc1` (single isomer, unassigned; (+)) [(+)-(2S,3S)-13], the IC50 at proteasome [3] turned out to be 189 ± 17 µM. Besides, the “profile in MTT and Trypan blue tests compared with racemate” value in the series with RPMI 8226 cells [1] was “less antiproliferative properties”.
Turning to `COC(=O)C1CC(=O)N(Cc2ccccc2)C1c1ccccc1` [(2R,3R/2S,3S)-14, Methyl 1-Benzyl-5-oxo-2-phenylpyrrolidine-3-carboxylate], the “change of MTT efficacy over time” value with RPMI 8226 cells [2] was “time-dependent effect”. The IC50 was 43 µM with RPMI 8226 cells [2] (RPMI-8226, 48 h); 34 µM in the series with RPMI 8226 cells [2] (RPMI-8226, 72 h); 61 ± 12 µM in the series with RPMI 8226 cells [1] (setting [9]); below 350 µM in the series with RPMI 8226 cells [1] (setting [10]). On proteasome [3] (10 µM, 24 h), the “proteasome inhibition at the lowest evaluated concentration” value was “significant inhibition”. The proteasome inhibition activity entry on proteasome [3] is recorded as “most effective”. The “fold more active than the reference compound Hib-ester” value with RPMI 8226 cells [1] is 34 fold; in the series with RPMI 8226 cells [1] (listed as 14) it was “at least 6 fold”. The “cell death (Trypan blue vital count)” value in the series with RPMI 8226 cells [4] is recorded as “significant increase in cell death”.
